Test results published in patent US20080081039A1, “Inorganic Selenium For Treatment Of Cancer” (priority 2004, published 2008).

Columns and labels:
[1] = tested on: prostate tumor PC-3 cells
Procedure: 1×10^6 prostate tumor PC-3 cells were injected into the prostate of nude mice. […] Paclitaxel at 10 mg/kg was administered intraperitoneally once per week in 10% Cremophor EL/25% ethanol/65% PBS solution to those animals receiving paclitaxel. 10 animals were used per group. After 5 weeks post injection, animals were sacrificed, the prostates removed, the appendages dissected off and the tumors weighed. The retroperitoneum was explored for lymphadenopathy and lymph nodes greater than 0.5 mm diameter excised. The tumors were then step sectioned at 50 micron steps and tumor volumes calculated from the digitized images using the standard volumetric formula […].

[2] = tested on: PC-3 cells; details: 5 weeks, vs controls
Procedure: Animal experimentation involved the use of BALB/c nude mice. On day one of the experiment 6 week old BALB/c nude mice were anaesthetized with an intraperitoneal injection of ketamine 100 mg/kg and xylazine 20 mg/kg. Under magnification 1×10^6 PC-3 cells with viability greater than 95%, were injected into the dorsolateral prostate, essentially as described in Corcoran, N. M., Najdovska, M., and Costello, A. J. (2004), J. Urol., 171:907-910.
On day 3 of the experiment all mice were switched to the D19101 minimal selenium diet with an assayed selenium content of 0.07 ppm (Research Diets Inc., New Brunswick, N.J., USA). […] After 5 weeks of supplementation mice were culled and tumor-containing prostate glands were then weighed and measured with a Vernier calliper. The retroperitonium was then explored under magnification cephadally to the level of the renal veins and lymph nodes measuring greater than 0.5 mm identified.
The degree of apoptosis in tissue samples was determined using an in situ TUNEL Cell Death Detection Kit (Roche Applied Science) according to the manufacture's instructions. The number of brown staining cells at high power (×400) were counted in 10 randomly chosen fields in areas where necrosis was absent on H&E staining of adjacent sections.
The rate of tumor cell proliferation was determined by in vivo BrdU incorporation. Two hours prior to culling, the mice were injected with 50 mg/kg BrdU (Sigma) intraperitoneally. 5 μm sections were cut, fixed in absolute methanol at 4° C. for 10 minutes. Sections were rehydrated in PBS and incubated in 2 N HCl for 1 hour at 37° C. to denature the DNA. The acid was neutralized by immersing the slides in 0.1 M borate buffer (pH 8.5). Following 3×PBS washes the samples were incubated with a monoclonal antibody to bromodeoxyuridine (BrdU) (Roche Applied Science) at a concentration of 5 μg/mL diluted in 0.1% BSA in PBS for 1 hour at room temperature, then overnight at 4° C. Samples were washed 3× times in PBS and incubated for 1 hour with a biotinylated link immunoglobulin mixture (DAKO Corporation). […] 10 fields at high power (×400) were chosen at random and the number of brown staining cells counted.

[3] = tested on: Akt; test: Immunoblot of Akt phosphorylation in serum starved PC-3 cells; assay type: cell-based, human; details: 0.5 mM
Text: (§1) The following antibodies were obtained from Cell Signaling Technology (Beverly, Mass., USA) unless otherwise stated: anti-p27^KIP1 (bd Pharmingen), anti-p21^CIP1 , ANTI-CYCLIN d1, ANTI-CYCLIN d3, ANTI-CDK4, ANTI-CDK6, ANTI-PHOSPHO rb (Ser807/811), anti-RB, anti-phospho Akt (Ser473), anti-phospho Akt (Thre308), anti-Akt, anti-phospho PDK1 (Ser241), anti-phospho PDK1 (Tyr373/376), anti-phospho GSK-3β, anti-phospho mTOR (Ser2448), anti-mTOR, anti-βIII tubulin (Promega).
(§2) To determine the effect of selenate on the phosphorylation of proteins involved in the PI3K/Akt signaling cascade, 5×10^5 PC-3 cells were allowed to attach for 10 hours. […] Cells were lysed in ELB (250 mM NaCl, 50 mM HEPES pH 7.0, 5 mM EDTA, 0.5 mM DTT, 0.2% TX100, 20 mM sodium fluoride, 2 mM sodium pervanadate, Complete Protease Inhibitor Cocktail (Roche)). Lysates were centrifuged for 15 minutes at 4° C. Protein concentration was determined using the BCA system (Sigma) and equal amounts of protein were loaded into each lane of a SDS-polyacrylamide gel. The proteins were transferred onto PVDF (Millipore) membranes and detected with anti-mouse or anti-rabbit secondary antibodies couples to horseradish peroxidase (HRP) and chemiluminescence using the SuperSignal West Dura (Pierce). Membranes were stripped using the Restore Western Blot Stripping Buffer (Pierce).

[4] = tested on: cell cycle regulatory proteins (cyclin D1, cdk4, cdk6, p27KIP1, p21CIP1); test: Immunoblot of cell cycle regulatory proteins in PC-3 cells; assay type: cell-based, human
Text: as §1, §2

[5] = tested on: human prostate cancer PC-3 cells; test: Cell toxicity by Trypan Blue Exclusion, selenate versus selenite; details: 5 μM or 50 μM, 24 to 96 hours
Procedure: 5×10^3 human prostate cancer PC-3 cells were seeded in a 24-well dish and 8 hours later were treated with either 5 μM or 50 μM of selenate or selenite. The dose range of 5 μM or 50 μM is equivalent to 0.1 mg/kg to 1.25 mg/kg. Cells were harvested at 24, 48, 72 and 96 hours following the addition of selenate or selenite and the percentage of viable cells as assessed by Trypan Blue staining was determined.
All cells in the tissue culture wells were then harvested sequentially at periods between 24 and 96 hours following addition of the treatments. The percentage of viable cells were then determined using the Trypan Blue exclusion assay.

[6] = tested on: GSK-3β; details: 0.5 mM, various time periods
Text: as §1, §2

[7] = tested on: mTOR; details: 0.5 mM, various time periods
Text: as §1, §2

[8] = tested on: retinoblastoma protein (Rb ser807/811); details: 0.5 mM, time-dependent
Text: as §1, §2

[9] = tested on: PDK1; details: 0.5 mM, out to 6 hours
Text: as §1, §2

## O=[Se](=O)(O)O [sodium selenate]
[1]; 5 ppm selenium in drinking water and/or paclitaxel 10 mg/kg intraperitoneally once per week, 5 weeks, control received Cremophor/ethanol carrier
  prostate tumor weights: not reduced compared to the control
[1]; selenate alone, 5 ppm in drinking water
  microvessel density in the tumors: greater effect on reducing microvessel density in the tumors than on tumor volumes
[2]; 5 ppm in drinking water, lymph nodes greater than 0.5 mm
  number of retroperitoneal lymph nodes: significantly decreased
[2]; 5 ppm in drinking water
  BrdU incorporation in prostate tumors: significantly impaired
  apoptosis (Tunel assay) in prostate tumors: not significantly different
  tumor volume difference: just failed to reach significance
[2]; 5 ppm selenium as sodium selenate in drinking water
  primary tumor growth assessed by the prostate weight index: significantly inhibit
[3]
  total cellular Akt levels (pan Akt): essentially unchanged
[3]; later exposure times
  Akt activation after the transient boost: marked and prolonged deactivation
[3]; various time points, FIG. 4D
  Akt phosphorylation at Ser473: profoundly inhibited
[3]; within 10 minutes of exposure
  phosphorylation of Akt at Ser473 and Thr308, early: transient boost
[4]; 0.5 mM, compared to control (0 hours), FIG. 3C
  p27KIP1 total protein levels, inorganic versus organic selenium: markedly boosted
[4]; 0.5 mM, from the 14 hour time period
  expression levels of cyclin D1: dropped significantly
[4]; 0.5 mM, out to 24 hours
  cdk4 levels: peaked at 6 hours and declined in time dependent manner to 24 hours
[4]; 0.5 mM, peaking at 6 hours
  p21CIP1 levels: marked increase
[4]; 0.5 mM, time-dependent till 24 hours
  p27KIP1 levels: increased
[4]; high dose (0.5 mM)
  cdk6 levels: remained relatively unchanged
[5]
  cytotoxic effect (Trypan Blue exclusion): not cytotoxic
  percentages of viable cells: equivalent to the control untreated samples
[6]
  GAK-3β phosphorylation status: induced a decline
[7]
  mTOR phosphorylation status: induced a decline
[8]
  phosphorylation of Rb (ser807/811): marked decline
[9]
  phosphorylation status of PDK1 (ser241, tyr373/376): no effect
